Data as given in patent publication US7351732B2, “Cycloalkanedione derivatives, method for the production thereof and their pharmacological applications” (Schwarz Pharma S.L., priority 2002, dated 2008).
Where a name gives a salt, the structure may show the parent alone.

Target: T1, 5-HT2A receptors (Rattus norvegicus, UniProt P14842)
T1 construct: (b) 5-HT2A receptors, [^3H]ketanserin, rat cerebral cortex; from tissue; host or cells: rat cerebral cortex
Experiment: Radioligand displacement, 5-HT2A receptors, [3H]ketanserin
Format: binding
Conditions: rat cerebral cortex, read-out: Ki ± E.E. 5-HT2A

T1 sequence (P14842 whole entry): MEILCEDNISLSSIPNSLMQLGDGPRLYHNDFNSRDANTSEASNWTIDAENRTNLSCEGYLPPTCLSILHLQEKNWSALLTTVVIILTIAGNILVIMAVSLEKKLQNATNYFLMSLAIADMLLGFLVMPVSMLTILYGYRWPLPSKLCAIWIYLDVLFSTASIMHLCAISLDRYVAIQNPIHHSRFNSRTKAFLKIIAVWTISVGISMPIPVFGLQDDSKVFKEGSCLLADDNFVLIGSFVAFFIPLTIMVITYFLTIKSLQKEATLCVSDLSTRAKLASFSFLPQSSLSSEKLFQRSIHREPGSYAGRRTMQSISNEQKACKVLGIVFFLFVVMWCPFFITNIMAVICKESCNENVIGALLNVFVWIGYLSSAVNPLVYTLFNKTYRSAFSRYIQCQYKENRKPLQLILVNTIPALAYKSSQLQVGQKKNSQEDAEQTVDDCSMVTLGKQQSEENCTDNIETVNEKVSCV

| Compound | Ki [nM] |
| --- | --- |
| CN(C)CCCSc1ccccc1NC(=O)/C=C/c1ccccc1 [Cinanserine, reference compound] | 2.6 ± 0.4 |

Target: α1 receptors
Experiment: Radioligand displacement, α1 receptors, [3H]prazosin
Format: binding
Conditions: rat cerebral cortex, read-out: Ki ± E.E. α1

| Compound | Ki [nM] |
| --- | --- |
| Cc1ccc(N(CC2=NCCN2)c2cccc(O)c2)cc1 [Phentolamine, reference compound] | 6.1 ± 0.1 |
| COc1ccccc1CNCCCCN1C(=O)C2CCCN2C1=O (stereo not drawn) [Compound 17, 2-[4-[(o-Methoxyphenyl)methylamine]butyl]-1,3-dioxoperhydropyrrolo[1,2-c]imidazol] | > 10000 |

System: not given
Experiment: not given
Conditions: not given

| Compound | melting point [°C] |
| --- | --- |
| O=C1CSC(=O)N1CCCCNCCc1cccc2ccccc12 (as salt: hydrochloride) [Compound 10, 3-[4-[2-(Naphth-1-yl)ethylamine]butyl]-2,4-dioxothiazolidin] | 128 to 129 |
| O=C1CSC(=O)N1CCCCNCCOc1ccccc1 (as salt: hydrochloride) [Compound 13, 3-[4-[2-(Phenoxy)ethylamine]butyl]-2,4-dioxothiazolidin] | 173 to 174 |
| COc1ccccc1CCNCCCCN1C(=O)C2CCCN2C1=O (stereo not drawn) (as salt: hydrochloride) [Compound 18, 2-[4-[2-(o-Methoxyphenyl)ethylamine]butyl]-1,3-dioxoperhydropyrrolo[1,2-c]imidazol] | 160 to 162 |
| O=C1C2CSCN2C(=O)N1CCCCNCC1CCc2ccccc2O1 (racemic) (as salt: hydrochloride) [Compound 3, (±)-2-[4-[(Chroman-2-yl)methylamine]butyl]-1,3-dioxoperhydroimidazo[1,5-c]-thiazol] | 142 to 144 |
| O=C1C2CCCN2C(=O)N1CCCCNCCc1cccc2ccccc12 (stereo not drawn) (as salt: hydrochloride) [Compound 9, 2-[4-[2-(Naphth-1-yl)ethylamine]butyl]-1,3-dioxoperhydropyrrolo[1,2-c]imidazol] | 95 to 97 |
| O=C1C2CCCN2C(=O)N1CCCCNCc1nc2ccccc2[nH]1 (stereo not drawn) (as salt: hydrochloride) [Compound 16, 2-[4-[(Benzimidazol-2-yl)methylamine]butyl]-1,3-dioxoperhydropyrrolo[1,2-c]imidazol] | 208 to 210 |
| O=C1C2CCCN2C(=O)N1CCCCNCCOc1cccc2ccccc12 (stereo not drawn) (as salt: hydrochloride) [Compound 14, 2-[4-[2-(Naphth-1-oxi)ethylamine]butyl]-1,3-dioxoperhydropyrrolo[1,2-c]imidazol] | 163 to 164 |
| O=C1C2CCCN2C(=O)N1CCCCNCc1cccc2ccccc12 (stereo not drawn) (as salt: hydrochloride) [Compound 7, 2-[4-[(Naphth-1-yl)methylamine]butyl]-1,3-dioxoperhydropyrrolo[1,2-c]imidazol] | 150 to 153 |
| O=C1C2CCCN2C(=O)N1CCCCNCc1ccc2ccccc2c1 (stereo not drawn) (as salt: hydrochloride) [Compound 8, 2-[4-[(Naphth-2-yl)methylamine]butyl]-1,3-dioxoperhydropyrrolo[1,2-c]imidazol] | 125 to 127 |
| O=C1C2SCCN2C(=O)N1CCCCNCC1CCc2ccccc2O1 (racemic) (as salt: hydrochloride) [Compound 2, (±)-2-[4-[(Chroman-2-yl)methylamine]butyl]-1,3-dioxoperhydroimidazo[1,5-b]thiazol] | 149 to 151 |

Target: T2, 5-HT1A (Rattus norvegicus, UniProt P19327)
T2 sequence (P19327 1-422): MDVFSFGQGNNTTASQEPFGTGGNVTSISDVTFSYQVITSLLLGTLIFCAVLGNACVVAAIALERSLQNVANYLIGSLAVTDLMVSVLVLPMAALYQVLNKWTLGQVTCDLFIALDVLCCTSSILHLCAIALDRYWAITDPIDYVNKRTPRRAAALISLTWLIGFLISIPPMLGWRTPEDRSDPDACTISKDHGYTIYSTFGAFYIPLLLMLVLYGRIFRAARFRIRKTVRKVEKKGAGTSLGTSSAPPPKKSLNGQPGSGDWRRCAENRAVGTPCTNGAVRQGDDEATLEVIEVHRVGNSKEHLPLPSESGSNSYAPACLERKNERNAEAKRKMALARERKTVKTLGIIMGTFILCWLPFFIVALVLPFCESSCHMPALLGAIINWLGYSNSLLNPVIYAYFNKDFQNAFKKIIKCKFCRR
Experiment: Radioligand displacement, 5-HT1A receptors, [3H]-8-OH-DPAT
Format: binding
Set-up: (a) 5-HT1A receptors, [^3H]-8-OH-DPAT, rat cerebral cortex; from tissue; host or cells: rat cerebral cortex
Conditions: rat cerebral cortex, read-out: Ki ± E.E. 5-HT1A

| Compound | Ki [nM] |
| --- | --- |
| O=C1CSC(=O)N1CCCCCNCC1CCc2ccccc2O1 (racemic) [Compound 5, (±)-3-[5-[(Chroman-2-yl)methylamine]pentyl]-2,4-dioxothiazolidin] | 5.5 ± 0.4 |
| O=C1CSC(=O)N1CCCCCCNCC1CCc2ccccc2O1 (racemic) [Compound 6, (±)-3-[6-[(Chroman-2-yl)methylamine]hexyl]-2,4-dioxothiazolidin] | 1.3 ± 0.2 |
| O=C1C2CCCN2C(=O)N1CCCCNCc1ccc2ccccc2c1 (stereo not drawn) [Compound 8, 2-[4-[(Naphth-2-yl)methylamine]butyl]-1,3-dioxoperhydropyrrolo[1,2-c]imidazol] | 51.01 ± 0.47 |
| COc1ccccc1CNCCCCN1C(=O)C2CCCN2C1=O (stereo not drawn) [Compound 17, 2-[4-[(o-Methoxyphenyl)methylamine]butyl]-1,3-dioxoperhydropyrrolo[1,2-c]imidazol] | > 10000 |

Target: T3, 5-HT4 receptors (Rattus norvegicus, UniProt Q62758)
T3 construct: (d) 5-HT4 receptors, [^3H]GR 113808, rat striatum; from tissue; host or cells: rat striatum
T3 sequence (Q62758 whole entry): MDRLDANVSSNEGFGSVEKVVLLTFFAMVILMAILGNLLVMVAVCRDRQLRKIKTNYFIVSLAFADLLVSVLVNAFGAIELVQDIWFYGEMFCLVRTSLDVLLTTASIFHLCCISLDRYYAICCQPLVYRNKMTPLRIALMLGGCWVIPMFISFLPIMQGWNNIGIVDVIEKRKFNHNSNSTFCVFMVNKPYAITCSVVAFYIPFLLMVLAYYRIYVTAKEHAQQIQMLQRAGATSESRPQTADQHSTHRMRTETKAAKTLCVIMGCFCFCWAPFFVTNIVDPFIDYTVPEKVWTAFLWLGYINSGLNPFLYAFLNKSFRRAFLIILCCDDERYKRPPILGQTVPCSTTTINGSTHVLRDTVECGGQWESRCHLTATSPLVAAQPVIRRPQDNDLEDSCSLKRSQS
Experiment: Radioligand displacement, 5-HT4 receptors, [3H]GR 113808
Format: binding
Conditions: [3H]GR 113808, rat striatum; read-out: Ki ± E.E. 5-HT4

| Compound | Ki [nM] |
| --- | --- |
| COc1cc(COc2cc(N)c(Cl)cc2C(=O)CCC2CCN(CCNS(C)(=O)=O)CC2)cc(OC)c1 [RS-39604, reference compound] | 3.9 ± 0.2 |
